Data taken from PubChem BioAssay (NCI).
Several values for one entry are separate records, joined by “and”; a condition that tells them apart may be missing. Equal entries are not always repeated.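 Each compound was tested at five concentrations against cells in 96-well plates for 48 hours. Abbreviation: GI50, concentration required for 50% inhibition of growth. TGI: concentration producing complete growth inhibition.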

Columns and labels:
Assay in all cases: growth of human tumour cells (NCI), 48 h
RXF 393 renal = system: RXF 393 renal
ACHN renal = system: ACHN renal
SR leukemia = system: SR leukemia
MDA-MB-231 breast = system: MDA-MB-231 breast
BT-549 breast = system: BT-549 breast
LOX IMVI melanoma = system: LOX IMVI melanoma
MDA-MB-435 = system: MDA-MB-435
SF-295 CNS = system: SF-295 CNS
RPMI-8226 leukemia = system: RPMI-8226 leukemia
SK-OV-3 ovarian = system: SK-OV-3 ovarian

With `CC(=O)c1ccc2c(c1)CC1(C2)Cc2ccccc2C1=O` (stereo not drawn) the TGI (RXF 393 renal) was over 100 µM, the TGI (ACHN renal) was over 100 µM and the TGI (SR leukemia) was over 100 µM. For the same compound, the TGI (MDA-MB-231 breast) was over 100 µM, the TGI (BT-549 breast) was over 100 µM and the TGI (LOX IMVI melanoma) was over 100 µM. For the same compound, the TGI (MDA-MB-435) was over 100 µM, the TGI (SF-295 CNS) was over 100 µM and the TGI (RPMI-8226 leukemia) was over 100 µM. For the same compound, the TGI (SK-OV-3 ovarian) was over 100 µM.

With `CC(C)OC(=O)OCSc1ccccc1N=Cc1cccc([N+](=O)[O-])c1` the TGI (RXF 393 renal) was over 10 µM, the TGI (ACHN renal) was over 10 µM and the TGI (SR leukemia) was over 10 µM. The TGI (MDA-MB-231 breast) was over 10 µM, the TGI (BT-549 breast) was over 10 µM and the TGI (LOX IMVI melanoma) was over 10 µM. It also gave a TGI (MDA-MB-435) of over 10 µM, a TGI (SF-295 CNS) of over 10 µM and a TGI (RPMI-8226 leukemia) of over 10 µM. It also gave a TGI (SK-OV-3 ovarian) of over 10 µM.

Compound `CCOC(=O)/C=C(\C(=O)OCC)n1ccc(=O)n(Cc2cn(COCCOC(C)=O)nn2)c1=O` has a TGI (RXF 393 renal) of 38.4 µM, a TGI (ACHN renal) of 17.3 µM and a TGI (SR leukemia) of 52.9 µM. For the same compound, the TGI (MDA-MB-231 breast) was 41.1 µM, the TGI (BT-549 breast) was 33.2 µM and the TGI (LOX IMVI melanoma) was 34.9 µM. It also gave a TGI (MDA-MB-435) of 37 µM, a TGI (SF-295 CNS) of over 100 µM and a TGI (RPMI-8226 leukemia) of 55.6 µM. For the same compound, the TGI (SK-OV-3 ovarian) was over 100 µM.

In the case of `C=C(CN(C)C)C(=O)c1ccccc1[N+](=O)[O-]`, the GI50 (RXF 393 renal) is reported as 1.99 µM, the TGI (RXF 393 renal) is reported as 30.2 µM and 4.32 µM and the GI50 (ACHN renal) is reported as 3.79 µM. For the same compound, the TGI (ACHN renal) was 29.5 µM and 14.8 µM, the GI50 (SR leukemia) was 1.65 µM and the TGI (SR leukemia) was > 33.3 µM and 5.74 µM. For the same compound, the GI50 (MDA-MB-231 breast) was 12.6 µM, the TGI (MDA-MB-231 breast) was 38 µM and 34.1 µM and the GI50 (BT-549 breast) was 24.3 µM. For the same compound, the TGI (BT-549 breast) was 30.6 µM and 60.4 µM, the GI50 (LOX IMVI melanoma) was 3.98 µM and the TGI (LOX IMVI melanoma) was 15 µM and 15.5 µM. For the same compound, the GI50 (MDA-MB-435) was 3.86 µM, the TGI (MDA-MB-435) was 29.7 µM and 15.9 µM and the GI50 (SF-295 CNS) was 17.7 µM. For the same compound, the TGI (SF-295 CNS) was 50.7 µM and 32.9 µM, the GI50 (RPMI-8226 leukemia) was 15.1 µM and 2.55 µM and the TGI (SK-OV-3 ovarian) was over 86.8 µM.

`S=c1cc(-c2ccc3c(c2)OCO3)s[nH]1` gave a TGI (RXF 393 renal) of over 100 µM, a TGI (ACHN renal) of over 100 µM and a TGI (SR leukemia) of over 100 µM. For the same compound, the TGI (MDA-MB-231 breast) was over 100 µM, the TGI (BT-549 breast) was over 100 µM and the TGI (LOX IMVI melanoma) was over 100 µM. The TGI (MDA-MB-435) was over 100 µM, the TGI (SF-295 CNS) was over 100 µM and the TGI (RPMI-8226 leukemia) was over 100 µM. For the same compound, the TGI (SK-OV-3 ovarian) was over 100 µM.

With `O=C(N/N=C/c1ccc(Br)cc1)N/N=C/c1ccc(Br)cc1` the TGI (RXF 393 renal) was 40.5 µM, the TGI (ACHN renal) was 20.8 µM and the TGI (SR leukemia) was 17.7 µM. The TGI (MDA-MB-231 breast) was 16.2 µM, the TGI (BT-549 breast) was 52.9 µM and the TGI (LOX IMVI melanoma) was over 100 µM. It also gave a TGI (MDA-MB-435) of 76 µM, a TGI (SF-295 CNS) of 19.6 µM and a TGI (RPMI-8226 leukemia) of 40.1 µM. It also gave a TGI (SK-OV-3 ovarian) of 7.96 µM.

With `CCOC(=O)c1cn2c(n1)sc1cc(Cl)cc(Cl)c12` the TGI (RXF 393 renal) was over 100 µM, the TGI (ACHN renal) was over 100 µM and the TGI (SR leukemia) was over 100 µM. For the same compound, the TGI (MDA-MB-231 breast) was over 100 µM, the TGI (BT-549 breast) was over 100 µM and the TGI (LOX IMVI melanoma) was over 100 µM. The TGI (MDA-MB-435) was over 100 µM, the TGI (SF-295 CNS) was over 100 µM and the TGI (RPMI-8226 leukemia) was over 100 µM. The TGI (SK-OV-3 ovarian) was over 100 µM.

Work on `C[n+]1c(-c2ccc(/C=C/C=N\NC(=O)c3ccc(C(=O)N/N=C\C=C\c4ccc(-c5cn6ccccc6[n+]5C)cc4)cc3)cc2)cn2ccccc21` yielded a TGI (RXF 393 renal) of over 100 µM, a TGI (ACHN renal) of over 100 µM and a TGI (SR leukemia) of 42.3 µM. The TGI (MDA-MB-231 breast) was over 58.8 µM, the TGI (BT-549 breast) was over 100 µM and the TGI (LOX IMVI melanoma) was over 100 µM. For the same compound, the TGI (MDA-MB-435) was over 100 µM, the TGI (SF-295 CNS) was over 100 µM and the TGI (RPMI-8226 leukemia) was over 84.6 µM. For the same compound, the TGI (SK-OV-3 ovarian) was over 100 µM.

For `O=c1cc(-c2ccccc2)oc2c(-c3cc(Cl)cc4c(=O)cc(-c5ccccc5)oc34)cc(Cl)cc12`, the TGI (RXF 393 renal) was over 100 µM, the TGI (ACHN renal) was over 100 µM and the TGI (SR leukemia) was over 100 µM. The TGI (MDA-MB-231 breast) was over 100 µM, the TGI (BT-549 breast) was over 100 µM and the TGI (LOX IMVI melanoma) was over 100 µM. It also gave a TGI (MDA-MB-435) of over 100 µM, a TGI (SF-295 CNS) of over 100 µM and a TGI (RPMI-8226 leukemia) of over 100 µM. The TGI (SK-OV-3 ovarian) was 85.2 µM.

`C=C1c2nc3ccccc3n2C=C(c2ccc(Cl)cc2)N1c1ccc(OC)cc1` gave a TGI (RXF 393 renal) of 21.6 µM, a TGI (ACHN renal) of 13.5 µM and a TGI (SR leukemia) of over 100 µM. It also gave a TGI (MDA-MB-231 breast) of 53.6 µM, a TGI (BT-549 breast) of 6.88 µM and a TGI (LOX IMVI melanoma) of over 100 µM. It also gave a TGI (MDA-MB-435) of 30.5 µM, a TGI (SF-295 CNS) of 18.5 µM and a TGI (RPMI-8226 leukemia) of over 100 µM. For the same compound, the TGI (SK-OV-3 ovarian) was 23.7 µM.

For `CC(C)(C)c1cc(C(=O)/C=C/c2ccc3c(c2)OCO3)cc(C(C)(C)C)c1O`, the TGI (RXF 393 renal) was 7.58 µM, the TGI (ACHN renal) was over 100 µM and the TGI (SR leukemia) was 10 µM. The TGI (MDA-MB-231 breast) was 37.7 µM, the TGI (BT-549 breast) was 27.2 µM and the TGI (LOX IMVI melanoma) was over 55.8 µM. It also gave a TGI (MDA-MB-435) of 7.04 µM, a TGI (SF-295 CNS) of over 31.2 µM and a TGI (RPMI-8226 leukemia) of 16.9 µM. For the same compound, the TGI (SK-OV-3 ovarian) was over 100 µM.
